Assay results from PubChem BioAssay AID1963985 (Molecular Pharmacology Branch, DTP, NCI, 2024).
Each block holds one compound with its values, some of them ahead of it.

Test system: 252836-082-R-J2-PDC tumor spheroids, viability
Test: Anticancer human tumor 252836-082-R-J2-PDC patient-derived head and neck squamous cell carcinoma cell line growth inhibition [PI3K]
Conditions: spheroids with HUVEC and MSC; for IC50: curve of first compound; for viability, T/C: stronger effect = lower value
How it was run: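 Combination activity was assessed by viability in multicellular tumor spheroids carrying HUVEC and MSC components. Agents were tested with PI3K inhibitors from a Cmax-based top dose (or 10 microM) downward in half-log increments.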

[1] = second compound 0.0316 µM, first compound 0.0316 µM
[2] = second compound 0.0316 µM, first compound 0.1 µM
[3] = second compound 0.0316 µM, first compound 0.316 µM
[4] = second compound 0.0316 µM, first compound 1 µM
[5] = second compound 0.0316 µM, first compound 3.16 µM
[6] = second compound 0.0316 µM, first compound 10 µM
[7] = second compound 0.1 µM, first compound 0.0316 µM
[8] = second compound 0.1 µM, first compound 0.1 µM
[9] = second compound 0.1 µM, first compound 0.316 µM
[10] = second compound 0.1 µM, first compound 1 µM
[11] = second compound 0.1 µM, first compound 3.16 µM
[12] = second compound 0.1 µM, first compound 10 µM
[13] = second compound 0.316 µM, first compound 0.0316 µM
[14] = second compound 0.316 µM, first compound 0.1 µM
[15] = second compound 0.316 µM, first compound 0.316 µM
[16] = second compound 0.316 µM, first compound 1 µM
[17] = second compound 0.316 µM, first compound 3.16 µM
[18] = second compound 0.316 µM, first compound 10 µM
[19] = second compound 1 µM, first compound 0.0316 µM
[20] = second compound 1 µM, first compound 0.1 µM
[21] = second compound 1 µM, first compound 0.316 µM
[22] = second compound 1 µM, first compound 1 µM
[23] = second compound 1 µM, first compound 3.16 µM
[24] = second compound 1 µM, first compound 10 µM
[25] = second compound 3.16 µM, first compound 0.0316 µM
[26] = second compound 3.16 µM, first compound 0.1 µM
[27] = second compound 3.16 µM, first compound 0.316 µM
[28] = second compound 3.16 µM, first compound 1 µM
[29] = second compound 3.16 µM, first compound 3.16 µM
[30] = second compound 3.16 µM, first compound 10 µM
[31] = second compound 10 µM, first compound 0.0316 µM
[32] = second compound 10 µM, first compound 0.1 µM
[33] = second compound 10 µM, first compound 0.316 µM
[34] = second compound 10 µM, first compound 1 µM
[35] = second compound 10 µM, first compound 3.16 µM
[36] = second compound 10 µM, first compound 10 µM
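Also: spheroids exposed to agents for seven days before readout.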
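For viability, T/C in this document: percent of vehicle DMSO control viability so 100% = untreated growth.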

- IC50 (second compound 0.0316 µM): > 10 µM
- IC50 (second compound 0.1 µM): > 10 µM
- IC50 (second compound 0.316 µM): > 10 µM
- IC50 (second compound 1 µM): > 10 µM
- IC50 (second compound 3.16 µM): > 10 µM
- IC50 (second compound 10 µM): 3.37 µM
Structure (SMILES): C#Cc1c(F)ccc2cc(O)cc(-c3ncc4c(N5CC6CCC(C5)N6)nc(OCC56CCCN5CC(F)C6)nc4c3F)c12 (stereo not given) + CC(Nc1ncnc2nc[nH]c12)c1cc2cccc(Cl)c2c(=O)n1-c1ccccc1
- viability, T/C [1]: 90%
- viability, T/C [2]: 78.4%
- viability, T/C [3]: 82.8%
- viability, T/C [4]: 86.4%
- viability, T/C [5]: 82%
- viability, T/C [6]: 63.6%
- viability, T/C [7]: 90.8%
- viability, T/C [8]: 87%
- viability, T/C [9]: 90.8%
- viability, T/C [10]: 97.7%
- viability, T/C [11]: 82.6%
- viability, T/C [12]: 64.8%
- viability, T/C [13]: 96.1%
- viability, T/C [14]: 92.9%
- viability, T/C [15]: 90.1%
- viability, T/C [16]: 87.5%
- viability, T/C [17]: 73.5%
- viability, T/C [18]: 65.4%
- viability, T/C [19]: 83.3%
- viability, T/C [20]: 75.7%
- viability, T/C [21]: 88.6%
- viability, T/C [22]: 78.4%
- viability, T/C [23]: 88.4%
- viability, T/C [24]: 66.8%
- viability, T/C [25]: 84.7%
- viability, T/C [26]: 67.6%
- viability, T/C [27]: 73.7%
- viability, T/C [28]: 75%
- viability, T/C [29]: 69%
- viability, T/C [30]: 62.6%
- viability, T/C [31]: 54.5%
- viability, T/C [32]: 58.2%
- viability, T/C [33]: 53.9%
- viability, T/C [34]: 49.4%
- viability, T/C [35]: 55.6%
- viability, T/C [36]: 44.9%

- IC50 (second compound 0.0316 µM): > 10 µM
- IC50 (second compound 0.1 µM): > 10 µM
- IC50 (second compound 0.316 µM): > 10 µM
- IC50 (second compound 1 µM): > 10 µM
- IC50 (second compound 3.16 µM): > 10 µM
- IC50 (second compound 10 µM): > 10 µM
Structure (SMILES): C=CC(=O)N1CCN(c2nc(=O)n(-c3c(C)ccnc3C(C)C)c3nc(-c4c(O)cccc4F)c(F)cc23)C(C)C1 (stereo not given) + CC(Nc1ncnc2nc[nH]c12)c1cc2cccc(Cl)c2c(=O)n1-c1ccccc1
- viability, T/C [1]: 94.3%
- viability, T/C [2]: 95.8%
- viability, T/C [3]: 103%
- viability, T/C [4]: 103%
- viability, T/C [5]: 105%
- viability, T/C [6]: 98%
- viability, T/C [7]: 88.5%
- viability, T/C [8]: 92.5%
- viability, T/C [9]: 96.1%
- viability, T/C [10]: 89.8%
- viability, T/C [11]: 96.3%
- viability, T/C [12]: 100%
- viability, T/C [13]: 91%
- viability, T/C [14]: 96.6%
- viability, T/C [15]: 107%
- viability, T/C [16]: 99.7%
- viability, T/C [17]: 104%
- viability, T/C [18]: 90.5%
- viability, T/C [19]: 85.7%
- viability, T/C [20]: 90.4%
- viability, T/C [21]: 118%
- viability, T/C [22]: 102%
- viability, T/C [23]: 108%
- viability, T/C [24]: 123%
- viability, T/C [25]: 74.9%
- viability, T/C [26]: 70.3%
- viability, T/C [27]: 74.7%
- viability, T/C [28]: 86.2%
- viability, T/C [29]: 93.3%
- viability, T/C [30]: 82.7%
- viability, T/C [31]: 72.5%
- viability, T/C [32]: 57.5%
- viability, T/C [33]: 69.4%
- viability, T/C [34]: 72.8%
- viability, T/C [35]: 94.9%
- viability, T/C [36]: 74.9%

- IC50 (second compound 0.0316 µM): > 10 µM
- IC50 (second compound 0.1 µM): > 10 µM
- IC50 (second compound 0.316 µM): > 10 µM
- IC50 (second compound 1 µM): > 10 µM
- IC50 (second compound 3.16 µM): > 10 µM
- IC50 (second compound 10 µM): > 10 µM
Structure (SMILES): CC(Cn1ccc(-c2ccc(C#N)c(Cl)c2)n1)NC(=O)c1cc(C(C)O)[nH]n1 (stereo not given) + CC(Nc1ncnc2nc[nH]c12)c1cc2cccc(Cl)c2c(=O)n1-c1ccccc1
- viability, T/C [1]: 105%
- viability, T/C [2]: 78.9%
- viability, T/C [3]: 96.6%
- viability, T/C [4]: 87%
- viability, T/C [5]: 81.7%
- viability, T/C [6]: 76.3%
- viability, T/C [7]: 86.8%
- viability, T/C [8]: 89.3%
- viability, T/C [9]: 82.6%
- viability, T/C [10]: 83%
- viability, T/C [11]: 94.5%
- viability, T/C [12]: 70.2%
- viability, T/C [13]: 83.2%
- viability, T/C [14]: 78.5%
- viability, T/C [15]: 88.9%
- viability, T/C [16]: 88.8%
- viability, T/C [17]: 85.5%
- viability, T/C [18]: 85.9%
- viability, T/C [19]: 92.2%
- viability, T/C [20]: 76.3%
- viability, T/C [21]: 89.6%
- viability, T/C [22]: 80.5%
- viability, T/C [23]: 77%
- viability, T/C [24]: 70.3%
- viability, T/C [25]: 74%
- viability, T/C [26]: 73.7%
- viability, T/C [27]: 79.2%
- viability, T/C [28]: 72.5%
- viability, T/C [29]: 75%
- viability, T/C [30]: 74.2%
- viability, T/C [31]: 60.9%
- viability, T/C [32]: 55.3%
- viability, T/C [33]: 73.4%
- viability, T/C [34]: 55.4%
- viability, T/C [35]: 65.4%
- viability, T/C [36]: 56.8%

- IC50 (second compound 0.0316 µM): 0.642 µM
- IC50 (second compound 0.1 µM): 0.713 µM
- IC50 (second compound 0.316 µM): 0.496 µM
- IC50 (second compound 1 µM): 0.623 µM
- IC50 (second compound 3.16 µM): 0.538 µM
- IC50 (second compound 10 µM): 0.273 µM
Structure (SMILES): Cn1ncc(Cl)c1-c1cc(C(=O)NC(CN)Cc2cccc(F)c2)sc1Cl (stereo not given) + CC(Nc1ncnc2nc[nH]c12)c1cc2cccc(Cl)c2c(=O)n1-c1ccccc1
- viability, T/C [1]: 90.3%
- viability, T/C [2]: 65%
- viability, T/C [3]: 63.8%
- viability, T/C [4]: 44.5%
- viability, T/C [5]: 30%
- viability, T/C [6]: 12.1%
- viability, T/C [7]: 100%
- viability, T/C [8]: 81%
- viability, T/C [9]: 59.7%
- viability, T/C [10]: 43.9%
- viability, T/C [11]: 33%
- viability, T/C [12]: 12.2%
- viability, T/C [13]: 80.9%
- viability, T/C [14]: 70.3%
- viability, T/C [15]: 56.2%
- viability, T/C [16]: 38.8%
- viability, T/C [17]: 28.2%
- viability, T/C [18]: 12%
- viability, T/C [19]: 84%
- viability, T/C [20]: 80.4%
- viability, T/C [21]: 58.3%
- viability, T/C [22]: 40.7%
- viability, T/C [23]: 29.5%
- viability, T/C [24]: 13%
- viability, T/C [25]: 76.5%
- viability, T/C [26]: 71.8%
- viability, T/C [27]: 53.8%
- viability, T/C [28]: 43.3%
- viability, T/C [29]: 27.8%
- viability, T/C [30]: 15.5%
- viability, T/C [31]: 57%
- viability, T/C [32]: 60.9%
- viability, T/C [33]: 49.3%
- viability, T/C [34]: 30.7%
- viability, T/C [35]: 27%
- viability, T/C [36]: 14.1%

- IC50 (second compound 0.0316 µM): > 10 µM
- IC50 (second compound 0.1 µM): > 10 µM
- IC50 (second compound 0.316 µM): > 10 µM
- IC50 (second compound 1 µM): > 10 µM
- IC50 (second compound 3.16 µM): > 10 µM
- IC50 (second compound 10 µM): 6.58 µM
Structure (SMILES): Cn1nccc1Nc1nccc(-c2ccn(C(CO)c3ccc(Cl)c(F)c3)c(=O)c2)n1 (stereo not given) + CC(Nc1ncnc2nc[nH]c12)c1cc2cccc(Cl)c2c(=O)n1-c1ccccc1
- viability, T/C [1]: 83.3%
- viability, T/C [2]: 99.5%
- viability, T/C [3]: 91.9%
- viability, T/C [4]: 99.6%
- viability, T/C [5]: 93.3%
- viability, T/C [6]: 66.2%
- viability, T/C [7]: 100%
- viability, T/C [8]: 94.8%
- viability, T/C [9]: 91.3%
- viability, T/C [10]: 95.9%
- viability, T/C [11]: 95.9%
- viability, T/C [12]: 67.2%
- viability, T/C [13]: 97.2%
- viability, T/C [14]: 94.5%
- viability, T/C [15]: 93.7%
- viability, T/C [16]: 81.1%
- viability, T/C [17]: 91.9%
- viability, T/C [18]: 76%
- viability, T/C [19]: 75.4%
- viability, T/C [20]: 82.3%
- viability, T/C [21]: 91.3%
- viability, T/C [22]: 92.6%
- viability, T/C [23]: 81.5%
- viability, T/C [24]: 56.5%
- viability, T/C [25]: 72.4%
- viability, T/C [26]: 86.2%
- viability, T/C [27]: 77.5%
- viability, T/C [28]: 80.5%
- viability, T/C [29]: 80.9%
- viability, T/C [30]: 52.9%
- viability, T/C [31]: 62%
- viability, T/C [32]: 64.8%
- viability, T/C [33]: 78.9%
- viability, T/C [34]: 73.4%
- viability, T/C [35]: 62.4%
- viability, T/C [36]: 41.8%
